Earlier results in patent US6641797B2, “Perfluoroalkyl-containing complexes with sugar radicals, process for their production and their use” (Schering Aktiengesellschaft, priority 2000, dated 2003).
Where “and” joins values, the source holds several entries; their conditions need not be identical. Equal values may be shown once.

How the values were obtained:
[1] = 39° C., 0.47 T; cited from earlier work
[2] = 39° C., 0.47 T; cited from earlier work; remark: listed apart in the source
[3] = tested on: infarcted tissue; settings: cited from earlier work
[4] = in vivo; cited from earlier work
[5] = tested on: necrotic portion of a tumor; settings: in vivo; cited from earlier work

CNC[C@H](O)[C@@H](O)[C@H](O)[C@H](O)CO.O=C([O-])CN1CCN(CC(=O)[O-])CCN(CC(=O)O)CCN(CC(=O)[O-])CC1.[Gd+3] [DOTAREM^(R)]
T^1-Relaxivity in Water [1]: 3.5 L/mmol/s | T^1-Relaxivity in Plasma [2]: 4.3 L/mmol/s

CNC[C@H](O)[C@@H](O)[C@H](O)[C@H](O)CO.CNC[C@H](O)[C@@H](O)[C@H](O)[C@H](O)CO.O=C([O-])CN(CCN(CC(=O)[O-])CC(=O)O)CCN(CC(=O)[O-])CC(=O)O.[Gd+3] [MAGNEVIST^(R), Gd-DTPA]
T^1-Relaxivity in Water [1]: 3.8 L/mmol/s | T^1-Relaxivity in Plasma [2]: 4.8 L/mmol/s

gadolinium-mesoporphyrin [Gd-MP]
ratio of the signal intensities in MRI, infarcted in comparison to healthy tissue ([3]; kidney and myocardium): 2.10 and 2.19 | metal content of infarcted tissue versus non-infarcted, myocardium ([3]; myocardium (Example 1 of WO 95/31219)): nine times as large

O=S(=O)([O-])c1ccc(-c2c3nc(c(-c4ccc(S(=O)(=O)[O-])cc4)c4ccc([n-]4)c(-c4ccc(S(=O)(=O)[O-])cc4)c4nc(c(-c5ccc(S(=O)(=O)[O-])cc5)c5ccc2[n-]5)C=C4)C=C3)cc1.[Mn+3] [Mn-TPPS, manganese-5,10,15,20-tetrakis(4-sulfonatophenyl)-porphyrin]
LD50 [4]: approximately 0.5 mmol/kg | accumulation in the necrotic portion of a tumor [5]: selectively accumulates in the necrotic portion of a tumor

C[n+]1ccc(-c2c3nc(c(-c4cc[n+](C)cc4)c4ccc([n-]4)c(-c4cc[n+](C)cc4)c4nc(c(-c5cc[n+](C)cc5)c5ccc2[n-]5)C=C4)C=C3)cc1.[111In+3] [TMPyP, ^111In-5,10,15,20-tetrakis-(4-N-methyl-pyridinium)-porphyrin]
accumulation in the necrotic portion of a tumor [5]: does not accumulate in the necrotic portion

CNC(=O)CN(CCN(CCN(CC(=O)[O-])CC(=O)NC)CC(=O)[O-])CC(=O)[O-].[Gd+3] [OMNISCAN^(R)]
T^1-Relaxivity in Water [1]: 3.8 L/mmol/s | T^1-Relaxivity in Plasma [2]: 4.4 L/mmol/s
